Assay results from patent US20250250292A1, “DELIVERY SYSTEM TO TARGET GRAM-NEGATIVE BACTERIA” (priority 2022, published 2025).
Read-outs that look alike come from different tables or passages of the source.

What was measured:
Type in all cases: cell-based
[1] = tested on: Escherichia coli (BL21(DE3)); assay: Resazurin blue (alamarBlue) bacterial cell viability assay, gram-negative model
Description: (§1) To compare the efficacy of pleuromutilin and the pleuromulin-TPP^+ ester pro-drug (AP-8-159B) gram-negative and gram-positive pathogen model system were used. Thus, Escherichia coli (BL21(DE3) from New England Biolabs) was used as a model strain for gram-negative bacteria and clinical isolates of Staphylococcus aureus were used as the model system for gram-positive bacteria (NR-49120, NR-46413 obtained from BEI Resources). All strains were cultured at 37° C. overnight in Luria Bertani (LB) (BD 244610). For testing the drug sensitivity, bacteria were grown in RPMI medium containing 10% fetal bovine serum or human serum.
A resazurin blue assay (alamarBlue®) (Toté et al., 2009; Costa et al., 2021; Wannigama et al., 2019; Travnickova et al., 2019) was used to evaluate bacterial cell viability. Resazurin (7-hydroxy-10-oxidophenoxazin-10-ium-3-one, sodium) is a blue fluorogenic dye used as a redox indicator in cell viability and proliferation assays for bacteria, yeast, or mammalian cells. The resazurin assay protocol is based on the reduction of oxidized non-fluorescent blue resazurin to a red fluorescent dye (resorufin), where NADPH dehydrogenase, without being bound by theory, is probably responsible for the transference of electrons from NADPH+H^+ to resazurin (Costa et al., 2021). The amount of resorufin produced is directly proportional to the number of living cells. This simple fluorometric-based assay rapidly quantifies metabolically active bacterial cells. Two controls were added to the plate to confirm the correct response from the resazurin. The positive control used evaluated media alone without bacterial culture to confirm there was no change from blue to red. The negative control evaluated the bacteria culture alone without added compound to provide a 100% growth control (red). Thus, resazurin sodium salt (Sigma R7017) was added to pleuromutilin or pleuromutilin-TPP+ prodrug treated bacterial samples at a final concentration of 0.02% and incubated for 8 hours at 37° C. Changes in fluorescence were measured on the Biotek Synergy 2 plate reader after an 8-hour incubation at 37° C. using an excitation filter range of 530-570 nm and an emission filter range of 590-620 nm. An increase in fluorescence intensity corresponded to bacterial growth and was quantified by comparison with untreated bacterial control samples. The ratio of (TThreshold (untreated)/TThreshold (prodrug-treated)) (where T=time) was used to quantify the change in bacterial growth. To minimize inter-experimental variations, TThreshold values were corrected by subtracting untreated control cultures to reach minimum detectable fluorescence. At the end of the experiment, wells were visualized for changes in color from blue (inviable bacteria) to red (viable bacteria) and a picture was taken.

[2] = tested on: clinical isolates of Staphylococcus aureus (NR-49120, NR-46413); assay: Resazurin blue (alamarBlue) bacterial cell viability assay, gram-positive model; details: clinical strains of Staphylococcus aureus
Description: as §1
A resazurin blue assay (alamarBlue®) (Toté et al., 2009; Costa et al., 2021; Wannigama et al., 2019; Travnickova et al., 2019) was used to evaluate bacterial cell viability. Resazurin (7-hydroxy-10-oxidophenoxazin-10-ium-3-one, sodium) is a blue fluorogenic dye used as a redox indicator in cell viability and proliferation assays for bacteria, yeast, or mammalian cells. […] This simple fluorometric-based assay rapidly quantifies metabolically active bacterial cells. […] The positive control used evaluated media alone without bacterial culture to confirm there was no change from blue to red. The negative control evaluated the bacteria culture alone without added compound to provide a 100% growth control (red). […] Changes in fluorescence were measured on the Biotek Synergy 2 plate reader after an 8-hour incubation at 37° C. using an excitation filter range of 530-570 nm and an emission filter range of 590-620 nm. An increase in fluorescence intensity corresponded to bacterial growth and was quantified by comparison with untreated bacterial control samples. The ratio of (TThreshold (untreated)/TThreshold (prodrug-treated)) (where T=time) was used to quantify the change in bacterial growth. To minimize inter-experimental variations, TThreshold values were corrected by subtracting untreated control cultures to reach minimum detectable fluorescence. […]

MRC5 fibroblast cells = assay: Cel Titer Glo cytotoxicity in MRC5 cells; details: for IC50: Homo sapiens
Description: In order to facilitate development of the TPP containing antibiotics, a series of TPP linkers were prepared and tested for their toxicity in MRC5 cells. This library of linkers are shown below: The toxicity of these linkers in MRC5 cells after a 72 hour incubation.

Acinetobacter baumannii = assay: Antibacterial in vitro activity (MIC)
Description: (§2) These compounds were tested in an E. coli and Klebsiella strain to determine the change in OD600 as a function of concentration (FIG. 5, E. coli; FIG. 6, Klebsiella). The antibacterial activity of the compounds was further analyzed and activity was determine a variety of different bacterial strains.

Citrobacter freundii = assay: Antibacterial in vitro activity (MIC)
Description: as §2

Enterobacter cloacae = assay: Antibacterial in vitro activity (MIC)
Description: as §2

Enterococcus faecium = assay: Antibacterial in vitro activity (MIC); details: isolate D0459, Clinical isolate
Description: as §2

Escherichia coli = assay: Antibacterial in vitro activity (MIC)
Description: as §2

Haemophilus influenzae = assay: Antibacterial in vitro activity (MIC)
Description: as §2

Klebsiella pneumoniae = assay: Antibacterial in vitro activity (MIC)
Description: as §2

Proteus mirabilis = assay: Antibacterial in vitro activity (MIC)
Description: as §2

Pseudomonas aeruginosa = assay: Antibacterial in vitro activity (MIC)
Description: as §2

Salmonella typhimurium = assay: Antibacterial in vitro activity (MIC); details: Salmonella enterica, ATCC 13311 / TYPHIMURIUM; isolate D0109, ATCC13311
Description: as §2

Staphylococcus aureus = assay: Antibacterial in vitro activity (MIC)
Description: as §2

Streptococcus agalactiae = assay: Antibacterial in vitro activity (MIC); details: isolate B0790, Clinical isolate
Description: as §2

Streptococcus pneumoniae = assay: Antibacterial in vitro activity (MIC)
Description: as §2

Streptococcus pyogenes = assay: Antibacterial in vitro activity (MIC); details: isolate B0780, Clinical isolate
Description: as §2

[3] = Table 2, cytotoxicity in MRC5 fibroblast cells
[4] = ATCC25922, isolate B0001, ATCC 25922, read-out: MIC
[5] = isolate B0159, Efflux pump deficient (ΔtolC)
[6] = isolate B0429, Efflux pump deficient (ΔacrAB)
[7] = isolate B1098, Clinical isolate, read-out: MIC
[8] = isolate D0120, Clinical isolate, read-out: MIC
[9] = Table 1, TPP+ linkers, MRC5 cells, 72-hour incubation

## C=C[C@]1(C)C[C@@H](OC(=O)COC(=O)c2ccc(C[P+](c3ccccc3)(c3ccccc3)c3ccccc3)cc2)[C@]2(C)CC[C@@H](C)[C@@]3(CCC(=O)[C@@H]23)[C@@H](C)[C@@H]1O [AP-8-159B]
[1]; E Coli BL21 (DE3)
  cytotoxicity potency: 1.65 µg/mL
[2]
  cytotoxic effect: potent cytotoxic agents
MRC5 fibroblast cells; [3]
  IC50: 4.67 µM
MRC5 fibroblast cells; normal MRC5 fibroblast cell lines
  cytotoxicity: weak cytoxcity
Acinetobacter baumannii; ATCC15473, isolate B0473, ATCC 15473
  MIC: 64 µg/mL
Acinetobacter baumannii; isolate B1062, Clinical isolate
  MIC: 128 µg/mL
Citrobacter freundii; isolate B0271, Clinical isolate
  MIC: 64 µg/mL
Citrobacter freundii; isolate B0286, AKH Vienna
  MIC: 64 µg/mL
Enterobacter cloacae; isolate D1089, Clinical isolate
  MIC: > 128 µg/mL
Enterobacter cloacae; isolate D1090, Clinical isolate
  MIC: > 128 µg/mL
Enterococcus faecium
  MIC: 0.5 µg/mL
Escherichia coli; [4]
  MIC: 8 µg/mL
Escherichia coli; isolate B0158, AcrAB-TolC efflux pump WT, read-out: MIC
  MIC: 32 µg/mL
Escherichia coli; [5]
  MIC: 0.5 µg/mL
Escherichia coli; [6]
  MIC: 1 µg/mL
Escherichia coli; [7]
  MIC: 16 µg/mL
Escherichia coli; [8]
  MIC: 16 µg/mL
Haemophilus influenzae; ATCC49247, isolate B0035, ATCC 49247
  MIC: 1 µg/mL
Haemophilus influenzae; isolate B0126, Clinical isolate
  MIC: 0.25 µg/mL
Klebsiella pneumoniae; ATCC11228, isolate B0032, ATCC 11228
  MIC: > 128 µg/mL
Klebsiella pneumoniae; ATCC29519, isolate D0033, ATCC 29519
  MIC: 128 µg/mL
Klebsiella pneumoniae; ATCC43816, isolate B0305, ATCC 43816
  MIC: 128 µg/mL
Proteus mirabilis; Proteus mirabilis, isolate D1301, Clinical isolate, read-out: MIC
  MIC: 32 µg/mL
Proteus mirabilis; isolate D1300, Clinical isolate
  MIC: 32 µg/mL
Pseudomonas aeruginosa; ATCC27853, isolate B0015, ATCC 27853
  MIC: 8 µg/mL
Pseudomonas aeruginosa; ATCC29511, isolate B0016, ATCC 29511
  MIC: 16 µg/mL
Pseudomonas aeruginosa; isolate B0367, Clinical isolate
  MIC: 4 µg/mL
Salmonella typhimurium
  MIC: 16 µg/mL
Staphylococcus aureus; ATCC49951, isolate B0009, ATCC 49951
  MIC: ≤ 0.12 µg/mL
Staphylococcus aureus; isolate B0029, Clinical isolate
  MIC: 0.5 µg/mL
Staphylococcus aureus; isolate B1325, Clinical isolates
  MIC: 0.5 µg/mL
Streptococcus agalactiae
  MIC: 0.06 µg/mL
Streptococcus pneumoniae; isolate B0078, Clinical isolate
  MIC: 0.5 µg/mL
Streptococcus pneumoniae; isolate B0415, Clinical isolate
  MIC: ≤ 0.12 µg/mL
Streptococcus pyogenes
  MIC: 0.12 µg/mL

## Oc1ccc(C[P+](c2ccccc2)(c2ccccc2)c2ccccc2)cc1 [AP-8-109]
MRC5 fibroblast cells; [9]
  IC50: 60.6 µM

## OCc1ccc([P+](c2ccccc2)(c2ccccc2)c2ccccc2)cc1 [AP-8-98]
MRC5 fibroblast cells; [9]
  IC50: 57.6 µM

## O=C(O)CC[P+](c1ccccc1)(c1ccccc1)c1ccccc1 [AP-4-8]
MRC5 fibroblast cells; [9]
  IC50: > 90 µM

## O=C(O)c1ccc([P+](c2ccccc2)(c2ccccc2)c2ccccc2)cc1 [AP-8-99-1]
MRC5 fibroblast cells; [9]
  IC50: > 90 µM

## CC(C)C[C@H](NC(=O)[C@H](Cc1ccccc1)NC(=O)c1cnccn1)B(O)O [PS-341, bortezomib]
MRC5 fibroblast cells; [9]
  IC50: 0.007 µM
MRC5 fibroblast cells; [3]
  IC50: 0.0003 µM

## Fc1cc(C[P+](c2ccccc2)(c2ccccc2)c2ccccc2)ccc1Cl [BI-182]
MRC5 fibroblast cells; [9]
  IC50: > 90 µM

## O=C(O)c1ccc(C[P+](c2ccccc2)(c2ccccc2)c2ccccc2)cc1 [AP-8-108, (4-Carboxybenzyl)triphenylphosphonium bromide]
[1]; E. coli BL21 (DE3)
  cytotoxic effect: no cytotoxic effect
[2]
  cytotoxic effect: no cytotoxic effect
MRC5 fibroblast cells; [9]
  IC50: > 90 µM
MRC5 fibroblast cells; [3]
  IC50: > 90 µM
Escherichia coli; [4]
  MIC: > 32 µg/mL
Escherichia coli; [5]
  MIC: > 32 µg/mL
Escherichia coli; [6]
  MIC: > 32 µg/mL
Escherichia coli; [7]
  MIC: > 32 µg/mL
Escherichia coli; [8]
  MIC: > 32 µg/mL
